Assay results reported in PubChem BioAssay (NCI).
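Results reflect a 48-hour exposure of cells in 96-well plates to compound at five concentrations. GI50 marks 50% less growth. TGI marks complete inhibition of growth.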

Columns and labels:
Experiment in all cases: NCI-60 cell line screen, 48 h
[1] = system: CCRF-CEM leukemia
[2] = system: SF-268 CNS
[3] = system: M14 melanoma
[4] = system: SR leukemia
[5] = system: SK-MEL-2 melanoma
[6] = system: RPMI-8226 leukemia
[7] = system: NCI-H226 lung
[8] = system: SNB-19 CNS
[9] = system: MALME-3M melanoma
[10] = system: T-47D breast
[11] = system: UO-31 renal
[12] = system: 786-0 renal
[13] = system: HL-60(TB) leukemia
[14] = system: LOX IMVI melanoma
[15] = system: OVCAR-3 ovarian
[16] = system: HCT-15 colon
[17] = system: MCF7 breast
[18] = system: SN12C renal
[19] = system: HS 578T breast
[20] = system: OVCAR-8 ovarian
[21] = system: SF-295 CNS
[22] = system: OVCAR-4 ovarian
[23] = system: UACC-62 melanoma
[24] = system: CAKI-1 renal
[25] = system: SF-539 CNS
[26] = system: HOP-62 NSCLC
[27] = system: BT-549 breast
[28] = system: HOP-92 NSCLC
[29] = system: PC-3 prostate
[30] = system: NCI/ADR-RES ovarian
[31] = system: ACHN renal
[32] = system: OVCAR-5 ovarian
[33] = system: A498 renal
[34] = system: DU-145 prostate
[35] = system: MOLT-4 leukemia
[36] = system: SK-OV-3 ovarian
[37] = system: U251 CNS
[38] = system: HCT-116 colon
[39] = system: HT29 colon
[40] = system: HCC-2998 colon
[41] = system: K-562 leukemia
[42] = system: COLO 205 colon
[43] = system: SK-MEL-28 melanoma
[44] = system: NCI-H23 lung
[45] = system: SNB-75 CNS
[46] = system: TK-10 renal
[47] = system: A549 NSCLC
[48] = system: SK-MEL-5 melanoma
[49] = system: RXF 393 renal
[50] = system: EKVX NSCLC
[51] = system: SW-620 colon
[52] = system: KM12 colon
[53] = system: UACC-257 melanoma
[54] = system: NCI-H522 lung
[55] = system: MDA-MB-231 breast
[56] = system: IGROV1 ovarian
[57] = system: NCI-H460 lung

In the case of Cc1c[nH]c(=O)n(Cc2nnc(CCC(=O)c3nc4ccccc4[nH]3)o2)c1=O, the GI50 [1] is reported as 459 nM, the TGI [1] is reported as > 100000 nM and the GI50 [2] is reported as 1500 nM. The TGI [2] was > 100000 nM, the GI50 [3] was 492 nM and the TGI [3] was 3120 nM. For the same compound, the GI50 [4] was 447 nM, the TGI [4] was > 100000 nM and the GI50 [5] was 887 nM. The TGI [5] was > 23900 nM, the GI50 [6] was 340 nM and the TGI [6] was > 100000 nM. For the same compound, the GI50 [7] was 3480 nM, the TGI [7] was > 100000 nM and the GI50 [8] was 1270 nM. The TGI [8] was > 100000 nM, the GI50 [9] was 1140 nM and the TGI [9] was > 100000 nM. For the same compound, the GI50 [10] was 1030 nM, the TGI [10] was > 100000 nM and the GI50 [11] was 2400 nM. For the same compound, the TGI [11] was > 100000 nM, the GI50 [12] was 1980 nM and the TGI [12] was 38300 nM. For the same compound, the GI50 [13] was 966 nM, the TGI [13] was > 100000 nM and the GI50 [14] was 439 nM. For the same compound, the TGI [14] was > 100000 nM, the GI50 [15] was 315 nM and the TGI [15] was 1260 nM. The GI50 [16] was 8930 nM, the TGI [16] was > 100000 nM and the GI50 [17] was 205 nM. The TGI [17] was > 100000 nM, the GI50 [18] was 1120 nM and the TGI [18] was > 100000 nM. For the same compound, the GI50 [19] was 285 nM, the TGI [19] was 2300 nM and the GI50 [20] was 661 nM. For the same compound, the TGI [20] was > 100000 nM, the GI50 [21] was 728 nM and the TGI [21] was 9480 nM. For the same compound, the GI50 [22] was 629 nM, the TGI [22] was > 100000 nM and the GI50 [23] was 721 nM. For the same compound, the TGI [23] was > 88100 nM, the GI50 [24] was 7220 nM and the TGI [24] was > 100000 nM. For the same compound, the GI50 [25] was 799 nM, the TGI [25] was 29900 nM and the GI50 [26] was 967 nM. For the same compound, the TGI [26] was > 100000 nM, the GI50 [27] was 717 nM and the TGI [27] was 48700 nM. For the same compound, the GI50 [28] was 1440 nM, the TGI [28] was > 100000 nM and the GI50 [29] was 477 nM. The TGI [29] was > 100000 nM, the GI50 [30] was 14700 nM and the TGI [30] was 63800 nM. For the same compound, the GI50 [31] was 7560 nM, the TGI [31] was > 100000 nM and the GI50 [32] was 879 nM. For the same compound, the TGI [32] was > 100000 nM, the GI50 [33] was 296 nM and the TGI [33] was 3890 nM. The GI50 [34] was 337 nM, the TGI [34] was 1210 nM and the GI50 [35] was 1690 nM. For the same compound, the TGI [35] was > 100000 nM, the GI50 [36] was 460 nM and the TGI [36] was 13200 nM. For the same compound, the GI50 [37] was 372 nM, the TGI [37] was > 42500 nM and the GI50 [38] was 251 nM. For the same compound, the TGI [38] was > 89800 nM, the GI50 [39] was 194 nM and the TGI [39] was > 43100 nM. For the same compound, the GI50 [40] was 421 nM, the TGI [40] was 7140 nM and the GI50 [41] was 1030 nM. For the same compound, the TGI [41] was > 100000 nM, the GI50 [42] was 299 nM and the TGI [42] was 1040 nM. The GI50 [43] was 533 nM, the TGI [43] was > 100000 nM and the GI50 [44] was 432 nM. The GI50 [45] was 55.8 nM, the TGI [45] was 806 nM and the GI50 [46] was 3680 nM. The TGI [46] was > 80600 nM, the GI50 [47] was 475 nM and the TGI [47] was > 100000 nM. For the same compound, the GI50 [48] was 330 nM, the TGI [48] was 67700 nM and the GI50 [49] was 697 nM. For the same compound, the TGI [49] was 3830 nM, the GI50 [50] was 1510 nM and the TGI [50] was > 100000 nM. The GI50 [51] was 483 nM, the TGI [51] was > 100000 nM and the GI50 [52] was 414 nM. The TGI [52] was > 33100 nM, the GI50 [53] was 787 nM and the TGI [53] was > 100000 nM. For the same compound, the GI50 [54] was 281 nM, the TGI [54] was 1400 nM and the GI50 [55] was 671 nM. The TGI [55] was > 53000 nM, the GI50 [56] was 575 nM and the TGI [56] was > 90400 nM. For the same compound, the GI50 [57] was 387 nM and the TGI [57] was > 43100 nM.
